Assay [1] has as its system P. acnes (+). The experiment in a line: porfimer sodium aPDT, planktonic culture. The format is cell-based, Proprionibacterium acnes (Cutibacterium acnes). The settings on record: 630 nm, kill at 75 J/cm2 (light dose 50-100 J/cm2), porfimer sodium 150 μg/mL. The method, then:
(§1) Bacteria were routinely cultured using tryptic soy broth or agar at 37° C. in a 5% CO2 incubator. Bacteria were isolated and suspended with 0.9% NaCl to an Optical Density (OD) of 0.1 taken at 630 nm, to generate the inoculum used for either planktonic or biofilm assays.
(§2) Experiments using planktonic cultures were carried out using M. catarrhalis, as a standard for further comparisons and to determine the effective drug concentration, porfimer sodium incubation time and light dose parameters which would provide an effective cell kill at the level of 5-7 logs. Once determined the experiments were repeated for all other bacterial strains examined.
(§3) The colony forming units (CFU) per mL of the starting inoculum for every experiment was determined by dilution plating. […]
(§4) Bacteria were exposed to 630 nm laser light via a fiber optic with a lens affixed to the distal end to provide a uniform diverging light field. […] Power output of the laser was measured using a UDT/Gamma Scientific 371 optical power meter and an integrating sphere. […]
(§5) Biofilms were formed on glass coupons in culture dishes containing a bacterial inoculum for 48 hours under conditions specific to the strain. […] Power output of the laser was measured using a UDT/Gamma Scientific 371 optical power meter and an integrating sphere. […]

The test system of assay [2] is P. gingivalis (−). The experiment in a line: porfimer sodium aPDT, planktonic culture. The settings on record: 630 nm, kill at 75 J/cm2 (light dose 50-100 J/cm2), porfimer sodium 150 μg/mL. It is filed as cell-based, Porphyromonas gingivalis. The method, then:
as §1, §2, §3, §4, §5

Assay [3] concerns S. aureus (+). Briefly: porfimer sodium aPDT, planktonic culture. The format is cell-based, Staphylococcus aureus. The settings on record: 630 nm, 200 J/cm2, porfimer sodium 125 μg/mL. The procedure:
as §1, §2, §3, §4, §5

Assay [4] has as its system MRSA (+). The experiment in a line: porfimer sodium aPDT, planktonic culture. It is filed as cell-based, methicillin-resistant Staphylococcus aureus. The note with it: 630 nm, 200 J/cm2, porfimer sodium 125 μg/mL. The procedure:
as §1, §2, §3, §4, §5

Assay [5] deals with B. thurigiensis (+). The experiment in a line: porfimer sodium aPDT, planktonic culture. It is filed as cell-based, Bacillus thuringiensis. The settings on record: 630 nm, 200 J/cm2, porfimer sodium 125 μg/mL. The method, then: as §1, §2, §3, §4, §5
The subject of assay [6] is B. atrophaeus (+). The experiment in a line: porfimer sodium aPDT, planktonic culture. The settings on record: 630 nm, 200 J/cm2, porfimer sodium 125 μg/mL. The format is cell-based, Bacillus atrophaeus. The procedure: as §1, §2, §3, §4, §5
Assay [7] deals with S. enterica (−). The experiment in a line: porfimer sodium aPDT, planktonic culture. The format is cell-based, Salmonella enterica. The settings on record: 630 nm, 200 J/cm2, porfimer sodium 125 μg/mL. The procedure: as §1, §2, §3, §4, §5
Assay [8] deals with A. baumannii (−). Briefly: porfimer sodium aPDT, planktonic culture. The format is cell-based, Acinetobacter baumannii. The settings on record: 630 nm, 200 J/cm2, porfimer sodium 125 μg/mL. The method, then: as §1, §2, §3, §4, §5
The test system of assay [9] is H. influenza (−). Briefly: porfimer sodium aPDT, planktonic culture. The settings on record: 630 nm, 200 J/cm2, porfimer sodium 125 μg/mL. The format is cell-based, Haemophilus influenza. The method, then:
as §1, §2, §3, §4, §5

The subject of assay [10] is S. Mutans (+). Briefly: porfimer sodium aPDT, planktonic culture. The note with it: 630 nm, 200 J/cm2, porfimer sodium 125 μg/mL. It is filed as cell-based, Streptococcus Mutans. The procedure: as §1, §2, §3, §4, §5
In assay [11] the test system is F. nucleatum (−). The experiment in a line: porfimer sodium aPDT, planktonic culture. The format is cell-based, Fusobacterium nucleatum. The settings on record: 630 nm, 50 J/cm2, porfimer sodium 125 μg/mL. The method, then:
as §1, §2, §3, §4, §5

Assay [12] relates to M. catarrhalis (−). Briefly: porfimer sodium aPDT, planktonic culture. The format is cell-based, Moraxella catarrhalis. The method, then:
as §1, §2, §3, §4, §5

The subject of assay [13] is S. aureus (+). Briefly: porfimer sodium aPDT, 48 hour biofilm culture. It is filed as cell-based, Staphylococcus aureus. The note with it: 630 nm, kill at 75 J/cm2 (light dose 75-100 J/cm2), porfimer sodium 250 μg/mL. The method, then: as §1
(§6) The colony forming units (CFU) per mL of the starting inoculum for every experiment was determined by dilution plating. Control samples were exposed to laser at 630 nm in the absence of porfimer sodium, porfimer sodium in the absence of laser exposure, or in saline alone in the absence of porfimer sodium and 630 nm laser light. All experimental samples were dilution plated to enumerate viable CFU's. Three independent replicates were performed for each reaction condition per strain per assay. […]
as §4, §5

Assay [14] relates to MRSA (+). Briefly: porfimer sodium aPDT, 48 hour biofilm culture. It is filed as cell-based, methicillin-resistant Staphylococcus aureus. The settings on record: 630 nm, kill at 100 J/cm2 (light dose 75-100 J/cm2), porfimer sodium 250 μg/mL. The method, then:
as §1, §6, §4, §5

The test system of assay [15] is P. gingivalis (−). The experiment in a line: porfimer sodium aPDT, 48 hour biofilm culture. The format is cell-based, Porphyromonas gingivalis. The note with it: 630 nm, kill at 100 J/cm2 (light dose 75-100 J/cm2), porfimer sodium 250 μg/mL. The procedure:
as §1, §6, §4, §5

The values below come from patent publication US12090204B2, “Photodynamic therapy compositions and methods of use thereof” (Pinnacle Biologics, Inc., priority 2020, dated 2024).

A value given as a limit tells only on which side of the number the result lay.

For porfimer sodium, the Rate of kill in assay [1] is on record as 7Log; in [2], 7Log; in assay [3] it was more than 7Log; in assay [4], more than 6Log; in [5] it was more than 6Log; in assay [6] it was 6Log. Besides, the Rate of kill in assay [7] is reported as 6Log; in [8] it was 1Log; in assay [9], 4Log; in assay [10] it was more than 7Log; in [11], 3Log; in assay [12] (630 nm, 200 J/cm2, porfimer sodium 125 μg/mL), 7Log. The Rate of kill in assay [13] is reported as more than 6Log; in assay [14], 7Log; in [15], 7Log. Further, the bacterial cell kill in assay [12] (125 μg/ml, incubated 10 minutes, light doses 50-100 J/cm^2) is recorded as 6-7 logs.
